{"source": "patent US20240066090A1", "about": "“COMPOSITION FOR PREVENTING, AMELIORATING, OR TREATING METABOLIC SYNDROMES INCLUDING OBESITY, DIABETES, HYPERLIPIDEMIA, AND FATTY LIVER” (NUTRACORE CO., LTD., priority 2019, published 2024)", "key": {"[1]": {"system": "HFD mice", "assay": "Periovarian and abdominal wall fat pad thickness, adipocyte size and accumulated fat weight in HFD-supplied mice", "assay_type": "in vivo, ICR mice", "details": "test materials 200 mg/kg oral, Metformin 250 mg/kg, mean±SD for 8 mice"}, "[2]": {"system": "HFD mice", "assay": "Body weight and total body/abdominal fat density (DEXA) in HFD-supplied mice", "assay_type": "in vivo, ICR mice", "details": "test materials 200 mg/kg, metformin 250 mg/kg", "experimental": "Specifically, after acclimating total 200 6-week-old female ICR mice to a laboratory environment for 7 days, they were adapted to HFD (45% Kcal high fat diet) 1 week before the start of administration of the experimental substance, and then the experimental substance was administered, and in the normal control group, a general NFD (Normal pellet diet) was supplied by the same method.\nAs the experimental substance, the LB (lemon balm extract) and CS (corn silk extract) alone and 9 kinds of LB:CS complexes (LB:CS=1:1, 1:2, 1:4, 1:6, 1:8, 2:1, 4:1, 6:1 and 8:1 (g/g)) as described in Table 1 above were used. The administration dose of the experimental substance was equally set to 200 mg/kg in total based on the medicinal efficacy investigation research of the present inventors. The experimental substance was dissolved in sterile distilled water and orally administered.\nIn addition, the total body fat and abdominal fat density were measured using DEXA (live dual-energy x-ray absorptiometry) and the result was shown in FIG. 4."}}}
{"smiles": "CN(C)C(=N)N=C(N)N", "note": "[Metformin]", "values": [{"measurement": "Abdominal wall fat pads Adipocyte diameters", "setting": "[1]", "result": "64.49 ± 13.74^ab μm"}, {"measurement": "Abdominal wall fat pads Thickness", "setting": "[1]", "result": "2.99 ± 0.49^fg mm"}, {"measurement": "Periovarian fat pads Adipocyte diameters", "setting": "[1]", "result": "48.12 ± 6.36^fg μm"}, {"measurement": "Periovarian fat pads Thickness", "setting": "[1]", "result": "2.83 ± 0.43^ab mm"}, {"measurement": "Time after the start of administration at which a significant (p<0.01 or p<0.05) decrease of body weight and fat density compared to the HFD control group began", "setting": "[2]", "result": 21, "unit": "days"}, {"measurement": "Body weight and fat density during the 84-day administration period, compared to the HFD control group (groups listed in order of effect)", "setting": "[2]; 84 days", "result": "significant (p<0.01) decrease"}]}
